*1 amine or outer side, *2 acyl side, *3 side chain or, on linkers, in order; H or OH if unused. Where a SMILES comes first, the peptide text is derived from it. Bridges are numbered along the chain shown (N, C = ends). [ ]: non-standard residue; d: D form. The star is where a group is joined. ξ: configuration not given here. Phe(3-OMe,4-CONHMe) = CNC(=O)c1ccc(C[C@H](N)C(=O)O)cc1OC; Phe(4-CF3) = N[C@@H](Cc1ccc(C(F)(F)F)cc1)C(=O)O; X11 = CNC(=O)c1ccc(CCN(CC(=O)[*:2])[*:1])cc1OC; NMehPhe = CN[C@@H](CCc1ccccc1)C(=O)O; X7 = O=C(C[C@H](COCCO)N[*:1])[*:2]; NMeF = CN[C@@H](Cc1ccccc1)C(=O)O; NMeGABA = CN(CCCC(=O)[*:2])[*:1]; NMeI = CC[C@H](C)[C@H](NC)C(=O)O; NMeL = CN[C@@H](CC(C)C)C(=O)O; Thr(3ξ) = CC(O)[C@H](N)C(=O)O; Propyl(2R-OH) = C[C@@H](O)C*; NMeV = CN[C@H](C(=O)O)C(C)C; NMeAbu = CC[C@H](NC)C(=O)O; NMeA = CN[C@@H](C)C(=O)O; Piperidide = C1CCN(*)CC1; NBuGly = CCCCNCC(=O)O; Isopentyl = CC(C)CC*; NPrGly = CCCNCC(=O)O; Ethyl(2-OH) = OCC*; Sar = CNCC(=O)O; tBu = CC(C)(C)*
Assay: in vitro
Settings: human, Caco-2, Caco-2 (cm/sec)

Compound | Papp [×10⁻⁶ cm/s]
CC[C@H](C)[C@H]1C(=O)N[C@@H](Cc2c[nH]c3ccccc23)C(=O)N(C)CC(=O)N(C)[C@@H](C)C(=O)N[C@H](C(=O)N2CCCCC2)CC(=O)N(C)[C@@H](C)C(=O)N[C@@H](CC(C)C)C(=O)N(C)[C@@H](CC(C)C)C(=O)N(C)[C@@H](CC(C)C)C(=O)N[C@@H](C)C(=O)N(C)[C@@H](CC(C)C)C(=O)N1C [pd101] ([NMeA]L[NMeL][NMeL]A[NMeL][NMeI]W[Sar][NMeA]D-Piperidide; lactam N-11) | 0.13
CC[C@H]1C(=O)N[C@@H]([C@@H](C)O)C(=O)N(C)CC(=O)N(C)[C@@H](Cc2ccccc2)C(=O)N(C)[C@@H](CC(C)C)C(=O)N[C@@H](COC(C)(C)C)C(=O)N(C)[C@@H](CC(C)C)C(=O)N[C@H](C(=O)N2CCCCC2)CC(=O)N(CCc2ccc(C(=O)NC)c(OC)c2)CC(=O)N(C)[C@@H](CC(C)C)C(=O)N[C@@H](CC(C)C)C(=O)N1C [AP219] ([X11][NMeL]L[NMeAbu]T[Sar][NMeF][NMeL]S(tBu)[NMeL]D-Piperidide; lactam N-11) | 1.3
CC[C@H](C)[C@@H]1NC(=O)[C@H](C(C)C)N(C)C(=O)CCCN(C)C(=O)C[C@@H](C(=O)N2CCCCC2)NC(=O)[C@H](CC(C)C)N(C)C(=O)[C@H](C)N(C)C(=O)[C@H](Cc2ccc(O)cc2)NC(=O)[C@H](CC(C)C)N(C)C(=O)[C@H](COC(C)(C)C)NC(=O)[C@H](Cc2ccccc2)N(C)C(=O)[C@H](CC(C)C)N(C)C1=O [pd125] ([NMeGABA][NMeV]I[NMeL][NMeF]S(tBu)[NMeL]Y[NMeA][NMeL]D-Piperidide; lactam N-11) | 0.45
CCCN1CC(=O)N(C)[C@@H](CC(C)C)C(=O)N[C@@H](COCCC(C)C)C(=O)N(C)[C@@H](Cc2ccccc2)C(=O)N(C)[C@@H](CC(C)C)C(=O)N[C@H](C(=O)N2CCCCC2)CC(=O)N[C@H](C(C)C)C(=O)N(C)[C@@H](CCc2ccccc2)C(=O)N[C@@H](COCCO)C(=O)N(C)[C@@H](CC(C)C)C(=O)N[C@@H]([C@@H](C)O)C1=O [Compound A01] ([dV][NMehPhe]S(Ethyl(2-OH))[NMeL]T[NPrGly][NMeL]S(Isopentyl)[NMeF][NMeL]D-Piperidide; lactam N-11) | 0.6
CCCCN1CC(=O)N(C)[C@@H](CC(C)C)C(=O)N[C@@H](COC(C)(C)C)C(=O)N(C)[C@@H]([C@@H](C)CC)C(=O)N(C)[C@@H](CC(C)C)C(=O)N[C@H](C(=O)N2CCCCC2)CC(=O)N[C@H](C)C(=O)N(C)[C@@H](Cc2ccccc2)C(=O)N[C@@H](Cc2ccc(C(=O)NC)c(OC)c2)C(=O)N(C)[C@@H](CC(C)C)C(=O)N[C@@H]([C@@H](C)O)C1=O [AP29] ([dA][NMeF][Phe(3-OMe,4-CONHMe)][NMeL]T[NBuGly][NMeL]S(tBu)[NMeI][NMeL]D-Piperidide; lactam N-11) | 0.36
CC[C@H](C)[C@H]1C(=O)N[C@@H]([C@@H](C)O)C(=O)N(C)CC(=O)N(C)[C@@H](CC(C)C)C(=O)N[C@H](C(=O)N2CCCCC2)CC(=O)N(C)[C@@H](C(C)C)C(=O)N[C@@H](CC(C)C)C(=O)N(C)[C@@H](CC(C)C)C(=O)N(C)[C@@H](Cc2ccccc2)C(=O)N[C@@H](COC[C@@H](C)O)C(=O)N(C)[C@@H](Cc2ccccc2)C(=O)N1C [AP76] ([NMeV]L[NMeL][NMeF]S(Propyl(2R-OH))[NMeF][NMeI]T[Sar][NMeL]D-Piperidide; lactam N-11) | 0.84
CCCCN1CC(=O)N(C)[C@@H](Cc2ccccc2)C(=O)N[C@@H]([C@@H](C)CC)C(=O)N(C)[C@@H](CC(C)C)C(=O)N[C@@H](C(C)O)C(=O)N(CCC)CC(=O)N(C)[C@@H](Cc2ccccc2)C(=O)N(C)[C@@H](CC(C)C)C(=O)N[C@@H](COCCO)CC(=O)N(C)[C@@H](CC(C)C)C(=O)N[C@H](C(=O)N2CCCCC2)CC1=O (stereo partly drawn) [AP26] ([NBuGly][NMeF]I[NMeL][Thr(3ξ)][NPrGly][NMeF][NMeL][X7][NMeL]D-Piperidide; lactam N-11) | 0.37

Same assay, conditions: human, Caco-2, Caco-2 (cm/sec) Papp

Compound | Papp [×10⁻⁶ cm/s]
CC[C@H](C)[C@@H]1NC(=O)[C@H](Cc2ccccc2)N(C)C(=O)[C@H](C)N(C)C(=O)C[C@@H](C(=O)N(C)[C@@H](Cc2ccccc2)C(=O)N(C)[C@@H](Cc2ccccc2)C(=O)N[C@@H](C)C(=O)N2CCCCC2)NC(=O)[C@H](CC(C)C)N(C)C(=O)[C@H](Cc2ccccc2)N(C)C(=O)[C@H]([C@@H](C)O)NC(=O)[C@H](CC(C)C)N(C)C(=O)[C@H](CC(C)C)N(C)C(=O)[C@H](C)N(C)C1=O [pd240] ([NMeA][NMeF]I[NMeA][NMeL][NMeL]T[NMeF][NMeL]D[NMeF][NMeF]A-Piperidide; lactam N-10) | 0.06

Same assay, conditions: human, Caco-2, Caco-2 (membrane permeability)

Compound | Papp [×10⁻⁶ cm/s]
CCCCN1CC(=O)N(C)[C@@H](CC(C)C)C(=O)N[C@@H](CCC(=O)NC)C(=O)N(C)[C@@H](Cc2ccccc2)C(=O)N(C)[C@@H]([C@@H](C)CC)C(=O)N[C@H](C(=O)N2CCCCC2)CC(=O)N[C@H](CC(C)C)C(=O)N(C)[C@@H](CC(C)C)C(=O)N[C@@H](Cc2ccc(C(F)(F)F)cc2)C(=O)N(C)[C@@H](CC(C)C)C(=O)N[C@@H]([C@@H](C)O)C1=O [Compound J02] ([dL][NMeL][Phe(4-CF3)][NMeL]T[NBuGly][NMeL]E(NHMe)[NMeF][NMeI]D-Piperidide; lactam N-11) | 0.004

— US20230096766A1, “AMINO ACID HAVING FUNCTIONAL GROUP CAPABLE OF INTERMOLECULAR HYDROGEN BONDING, PEPTIDE COMPOUND CONTAINING SAME AND METHOD FOR PRODUCTION THEREOF” (Chugai Seiyaku Kabushiki Kaisha, priority 2018, published 2023)
